For series [1] the following is noted: Crystal; DTA.
Series [2] in a line: Molar enthalpy of transition or fusion. The following applies: Crystal; DSC.

Structures are written as SMILES. ± gives the expanded uncertainty stated by the source.

With `CC[C@@]1(O)C(=O)OCc2c1cc1n(c2=O)Cc2cc3cc(O)ccc3nc2-1`, in series [1], the Normal melting temperature was 194.00 ± 1 °C. Also, the “Molar enthalpy of transition or fusion” value in series [2] worked out at 12.8 ± 0.335 kcal/mol.
